Results as given in patent US6458822B2, “2-oxo-imidazolidine-4-carboxylic acid hydroxamide compounds that inhibit matrix metalloproteinases” (Pfizer Inc., priority 2000, dated 2002).

- melting point: 130 to 133 °C
Compound: COc1ccc(CN2C[C@H](C(=O)NO)NC2=O)cc1 [Example 4, (4R)-1-(4-Methoxybenzyl)-2-oxo-imidazolidine-4-carboxylic Acid Hydroxyamide]
